Several values for one entry are separate records, joined by “and”; a condition that tells them apart may be missing. Equal values may be shown once. Read-outs that look alike come from different tables or passages of the source. Positions of bridges follow the written chain, without caps; N, C: chain ends. Non-standard residues stand in square brackets, D forms with d. Residues, ends and D or L forms follow the SMILES beside them. Chains are numbered I, II in the order given. Ahx = NCCCCCC(=O)O
Key:
Assay type in all cases: cell-based
[1] = system: Klebsiella pneumoniae ATCC 700603 (resistant)
Source text: (§1) All microorganisms were purchased from the American Type Culture Collection (ATCC). To determine the antibacterial activity of synthetic peptides against HCAI bacteria, the Staphylococcus aureus strains ATCC 25923 and ATCC 33591 were employed as sensitive and resistant strains, respectively, of a Gram-positive microorganisms species, and Klebsiella pneumoniae ATCC 13883 and ATCC 700603 as sensitive and resistant strains of a Gram-negative species.
(§2) The antibacterial activity assay for peptides and controls was performed according to the National Committee for Clinical Laboratory Standards method M7-A7 [11]. MIC and MBC values were determined using a broth microdilution and growth inhibition method with some modification. Briefly, MIC assays were performed by liquid inhibition growth assay in an untreated sterile 96-well flat-bottom tissue culture plate. Bacteria were cultured overnight on Mueller-Hinton agar (MHA). Three colonies were transferred to 8 mL of Mueller-Hinton broth (MHB) and incubated at 37°C until the mid-exponential phase of growth. The turbidity of the cultures was measured and adjusted spectrophotometrically to McFarland standard 0.5, then diluted to a final concentration of […]. Synthetic antibacterial peptide candidate stock solutions were diluted to final concentrations per well of 200, 100, 50, 25, 12.5, and 6.25 μM. […]
(§3) Wells containing MHB with bacterial inoculum only served as bacterial growth controls. Additional controls included MHB alone and MHB with ciprofloxacin (CIP) (2 μg/mL) and bacteria as a positive control. The microplate was incubated for 24 h at 37°C, and growth inhibition was examined by monitoring the optical density at 620 nm (OD620). MIC was defined as the lowest peptide concentration that inhibited bacteria growth >90%.

[2] = system: Staphylococcus aureus ATCC 25923 (sensitive)
Source text: as §1, §2, §3

[3] = system: Staphylococcus aureus ATCC 33591 (resistant)
Source text: as §1, §2, §3

[4] = system: Klebsiella pneumoniae ATCC 13883 (sensitive)
Source text: as §1, §2, §3

[5] = system: Klebsiella pneumoniae ATCC 700603 (resistant); remark: listed apart in the source
Source text: as §1
(§4) To determine the MBC, an aliquot from each well of the MIC assay was spread onto MHA. After 18 h at 37°C, the concentration that inhibited bacterial growth was determined. Each of these tests was performed four times. MBC was defined as the lowest concentration of peptide that reduced the number of bacteria by 99.9% in vitro [12].

[6] = system: Staphylococcus aureus ATCC 25923 (sensitive); remark: listed apart in the source
Source text: as §1, §4

[7] = system: Staphylococcus aureus ATCC 33591 (resistant); remark: listed apart in the source
Source text: as §1, §4

[8] = system: Klebsiella pneumoniae ATCC 13883 (sensitive); remark: listed apart in the source
Source text: as §1, §4

[9] = system: human erythrocytes; experiment: Haemolytic activity; details: 6.25-100 μM peptide; human erythrocytes 2% haematocrit in PBS, 2 h 37°C, OD492; n = 2
Protocol: Human erythrocytes collected from the blood samples of healthy humans were harvested by centrifugation for 7 min at 162 ×g and washed three times in phosphate-buffered saline (PBS). The erythrocytes (2% haematocrit in PBS) were incubated with peptide molecules at several concentrations (6.25, 12.5, 25, 50, and 100 μM), for 2 h at 37°C. PBS was used as a negative control, and sterile distilled water was used as a positive control for haemolysis (100% of haemolysis). The plate was subsequently centrifuged at 1459 ×g for 10 min at 4°C. Aliquots of the supernatants of each well (75 μL) were carefully transferred to a new sterile 96-well plate, and haemolytic activity was evaluated by measuring the OD492 using an Asys Expert Plus Microplate reader. The experiments were performed in duplicate, and peptide haemolysis activity was calculated.
Lastly, to evaluate the effects of the peptides on normal human erythrocytes, their haemolysis activity was investigated (Figure 6). The percentage of haemolytic activity on human red blood cells after 2 hours was determined via the standard microtitre dilution method. The peptide concentration is reported as μM.

## N=C(N)NCCC[C@H](NC(=O)[C@H](Cc1c[nH]c2ccccc12)NC(=O)[C@H](CCC(N)=O)NC(=O)[C@H](Cc1c[nH]c2ccccc12)NC(=O)[C@H](CCCNC(=N)N)NC(=O)[C@@H](N)CCCNC(=N)N)C(=O)NCCCC[C@H](NC(=O)[C@H](CCCNC(=N)N)NC(=O)[C@H](Cc1c[nH]c2ccccc12)NC(=O)[C@H](CCC(N)=O)NC(=O)[C@H](Cc1c[nH]c2ccccc12)NC(=O)[C@H](CCCNC(=N)N)NC(=O)[C@@H](N)CCCNC(=N)N)C(=O)NCCCCCC(N)=O [Dimeric] (I: H-RRWQWRK[Ahx]-NH2 / II: H-RRWQWR; amide I:7-II:C; N-terminus assumed)
[1]; ATCC 700603, 24 h
  MIC: 12.5 µM
[1]; K. pneumoniae ATCC 700603 resistant, MHB, 24 h 37°C, OD620, >90% inhibition, average of four independent experiments in duplicate
  MIC: 27 µg/mL
[1]; K. pneumoniae ATCC 700603 resistant, MHB, 24 h 37°C, OD620, >90% inhibition, average of four independent experiments in duplicate, listed as dimeric
  MIC: ≥ 27 µg/mL
[1]; K. pneumoniae ATCC 700603 resistant, value in parentheses, MHB, 24 h 37°C, OD620, >90% inhibition
  MIC: ≥ 12,5 µM
[1]; K. pneumoniae resistant strain, Figure 3
  concentration at which antibacterial activity was exhibited (dose-response profile): ≤ 27 μg/mL and ≤ 12,5 μM
[2]; ATCC 25923, 24 h
  MIC: 6.25 µM
[2]; S. aureus ATCC 25923 sensitive, MHB, 24 h 37°C, OD620, lowest concentration inhibiting growth >90%, average of four independent experiments in duplicate
  MIC: 14 µg/mL
[2]; S. aureus ATCC 25923 sensitive, MHB, 24 h 37°C, OD620, lowest concentration inhibiting growth >90%, average of four independent experiments in duplicate, listed as dimeric
  MIC: ≥ 14 µg/mL
[2]; S. aureus ATCC 25923 sensitive, value in parentheses, MHB, 24 h 37°C, OD620, >90% inhibition, average of four independent experiments in duplicate
  MIC: ≥ 6.25 µM
[2]; S. aureus sensitive strain, Figure 2
  concentration at which antibacterial activity was displayed (dose-response profile): ≥ 14 μg/mL and ≥ 6.25 μM
[3]; ATCC 33591, 24 h
  MIC: 25 µM
[3]; S. aureus ATCC 33591 resistant, MHB, 24 h 37°C, OD620, >90% inhibition, average of four independent experiments in duplicate
  MIC: 55 µg/mL
[3]; S. aureus ATCC 33591 resistant, MHB, 24 h 37°C, OD620, >90% inhibition, average of four independent experiments in duplicate, listed as dimeric
  MIC: ≥ 55 µg/mL
[3]; S. aureus ATCC 33591 resistant, value in parentheses, MHB, 24 h 37°C, OD620, >90% inhibition
  MIC: ≥ 25 µM
[4]; ATCC 13883, 24 h
  MIC: 12.5 µM
[4]; K. pneumoniae ATCC 13883 sensitive, MHB, 24 h 37°C, OD620, >90% inhibition, average of four independent experiments in duplicate
  MIC: 27 µg/mL
[4]; K. pneumoniae ATCC 13883 sensitive, MHB, 24 h 37°C, OD620, >90% inhibition, average of four independent experiments in duplicate, listed as dimeric
  MIC: ≥ 27 µg/mL
[4]; K. pneumoniae ATCC 13883 sensitive, value in parentheses, MHB, 24 h 37°C, OD620, >90% inhibition
  MIC: ≥ 12,5 µM
[4]; K. pneumoniae sensitive strain, Figure 3
  concentration at which antibacterial activity was exhibited (dose-response profile): ≤ 27 μg/mL and ≤ 12,5 μM
[5]; ATCC 700603, 18 h
  MBC: 100 µM
[5]; K. pneumoniae ATCC 700603 resistant, MHA, 18 h 37°C, 99.9% reduction
  MBC: 220 µg/mL
[5]; K. pneumoniae resistant strain, from concentrations in μg/mL
  MBC as a function of the MBC of the tetrameric peptide: 1.9 x MBC
[6]; ATCC 25923, 18 h
  MBC: 50 µM
[6]; S. aureus ATCC 25923 sensitive, MHA, 18 h 37°C, 99.9% reduction, average of four independent experiments
  MBC: 110 µg/mL
[6]; S. aureus ATCC 25923 sensitive, MHA, 18 h 37°C, 99.9% reduction, average of four independent experiments, listed as dimeric
  MBC: ≥ 110 µg/mL
[6]; S. aureus ATCC 25923 sensitive, value in parentheses, MHA, 18 h 37°C, 99.9% reduction
  MBC: ≥ 50 µM
[6]; S. aureus sensitive strain, from concentrations in μg/mL
  MBC as a function of the MBC of the tetrameric peptide: 1.9 x MBC
[7]; ATCC 33591, 18 h
  MBC: 50 µM
[7]; S. aureus ATCC 33591 resistant, MHA, 18 h 37°C, 99.9% reduction
  MBC: 110 µg/mL
[7]; S. aureus ATCC 33591 resistant, MHA, 18 h 37°C, 99.9% reduction, listed as dimeric
  MBC: ≥ 110 µg/mL
[7]; S. aureus ATCC 33591 resistant, value in parentheses, MHA, 18 h 37°C, 99.9% reduction
  MBC: ≥ 50 µM
[7]; S. aureus resistant strain, from concentrations in μg/mL
  MBC as a function of the MBC of the tetrameric peptide: 1.9 x MBC
[8]; ATCC 13883, 18 h
  MBC: 25 µM
[8]; K. pneumoniae ATCC 13883 sensitive, MHA, 18 h 37°C, 99.9% reduction
  MBC: 55 µg/mL
[8]; K. pneumoniae sensitive strain, from concentrations in μg/mL
  MBC as a function of the MBC of the tetrameric peptide: 0.5 x MBC
[9]
  haemolysis activity over the concentrations tested: < 5%
